Laboratory results published in ChEMBL document CHEMBL1137421, “3-Benzimidazol-2-yl-1H-indazoles as potent c-ABL inhibitors” (Bioorg Med Chem Lett, 2006).

Assays:
[1] = target: Tyrosine-protein kinase ABL1 (Homo sapiens, UniProt P00519)
[2] = target: Bcr/Abl fusion protein (Homo sapiens, UniProt P00519); type: functional, cell-based, K562
Bcr/Abl fusion protein, sequence (P00519 whole entry, the tested form may be a part): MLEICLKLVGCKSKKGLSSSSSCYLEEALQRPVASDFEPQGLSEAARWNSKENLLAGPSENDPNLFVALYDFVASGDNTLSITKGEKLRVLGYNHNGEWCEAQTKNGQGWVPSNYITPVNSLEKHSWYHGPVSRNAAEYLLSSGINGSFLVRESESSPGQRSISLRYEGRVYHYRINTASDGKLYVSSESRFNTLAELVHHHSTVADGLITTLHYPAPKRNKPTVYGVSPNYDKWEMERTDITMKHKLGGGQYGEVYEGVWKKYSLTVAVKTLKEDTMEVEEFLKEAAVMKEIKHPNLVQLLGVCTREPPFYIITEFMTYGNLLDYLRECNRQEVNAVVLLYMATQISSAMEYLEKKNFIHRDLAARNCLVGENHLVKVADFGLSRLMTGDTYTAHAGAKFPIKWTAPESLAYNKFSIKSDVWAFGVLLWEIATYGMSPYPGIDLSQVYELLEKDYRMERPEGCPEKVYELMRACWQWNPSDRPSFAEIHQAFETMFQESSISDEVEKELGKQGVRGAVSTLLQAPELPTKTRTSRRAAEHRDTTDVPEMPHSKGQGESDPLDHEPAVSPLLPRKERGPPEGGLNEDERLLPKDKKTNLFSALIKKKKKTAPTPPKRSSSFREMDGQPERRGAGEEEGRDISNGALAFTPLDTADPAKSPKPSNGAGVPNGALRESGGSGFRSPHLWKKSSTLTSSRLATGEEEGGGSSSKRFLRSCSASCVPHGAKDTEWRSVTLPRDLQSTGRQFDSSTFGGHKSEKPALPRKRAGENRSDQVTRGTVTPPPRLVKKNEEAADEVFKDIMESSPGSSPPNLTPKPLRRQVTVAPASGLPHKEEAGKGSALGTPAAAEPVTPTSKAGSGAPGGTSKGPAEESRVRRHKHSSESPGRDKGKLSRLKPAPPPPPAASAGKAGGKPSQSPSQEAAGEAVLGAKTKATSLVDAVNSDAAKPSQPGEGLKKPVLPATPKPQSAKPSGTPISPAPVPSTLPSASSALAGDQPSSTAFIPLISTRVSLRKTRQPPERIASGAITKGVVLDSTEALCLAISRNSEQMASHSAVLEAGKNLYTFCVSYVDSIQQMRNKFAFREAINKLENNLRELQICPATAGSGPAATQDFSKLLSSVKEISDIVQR
Bcr/Abl fusion protein, sequence (P11274 whole entry, further chain, the tested form may be a part): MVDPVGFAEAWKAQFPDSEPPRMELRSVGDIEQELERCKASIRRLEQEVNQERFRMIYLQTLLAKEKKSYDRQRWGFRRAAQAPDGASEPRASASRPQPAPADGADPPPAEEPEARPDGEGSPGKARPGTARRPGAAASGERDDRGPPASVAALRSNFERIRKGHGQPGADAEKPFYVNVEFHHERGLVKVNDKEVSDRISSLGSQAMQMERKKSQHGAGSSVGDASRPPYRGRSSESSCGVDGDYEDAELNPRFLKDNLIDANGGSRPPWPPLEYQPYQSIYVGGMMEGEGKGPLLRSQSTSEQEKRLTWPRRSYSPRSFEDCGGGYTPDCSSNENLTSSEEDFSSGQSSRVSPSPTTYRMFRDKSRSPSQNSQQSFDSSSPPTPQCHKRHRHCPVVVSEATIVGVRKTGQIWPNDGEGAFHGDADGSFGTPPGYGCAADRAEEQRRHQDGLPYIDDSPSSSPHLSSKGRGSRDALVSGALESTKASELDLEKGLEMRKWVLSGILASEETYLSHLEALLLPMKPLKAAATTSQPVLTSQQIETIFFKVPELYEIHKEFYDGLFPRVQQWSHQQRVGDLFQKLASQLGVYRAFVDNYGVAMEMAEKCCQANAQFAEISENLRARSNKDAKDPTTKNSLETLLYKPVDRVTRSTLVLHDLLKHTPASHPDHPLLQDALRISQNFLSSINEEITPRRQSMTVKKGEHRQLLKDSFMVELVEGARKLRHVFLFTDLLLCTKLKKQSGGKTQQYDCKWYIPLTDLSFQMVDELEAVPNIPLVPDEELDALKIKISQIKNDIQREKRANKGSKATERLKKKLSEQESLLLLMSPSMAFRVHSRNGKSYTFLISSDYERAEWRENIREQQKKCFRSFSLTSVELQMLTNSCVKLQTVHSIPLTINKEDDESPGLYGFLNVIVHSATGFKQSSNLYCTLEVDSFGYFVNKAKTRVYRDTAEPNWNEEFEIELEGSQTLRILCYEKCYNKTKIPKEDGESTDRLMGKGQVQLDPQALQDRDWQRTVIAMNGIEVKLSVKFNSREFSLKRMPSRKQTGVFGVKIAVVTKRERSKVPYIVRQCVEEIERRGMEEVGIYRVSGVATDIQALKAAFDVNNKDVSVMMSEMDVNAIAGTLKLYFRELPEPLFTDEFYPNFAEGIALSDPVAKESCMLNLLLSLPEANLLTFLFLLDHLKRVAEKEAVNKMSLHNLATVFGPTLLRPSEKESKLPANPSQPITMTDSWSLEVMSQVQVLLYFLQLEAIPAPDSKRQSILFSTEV

Tyrosine-protein kinase ABL1, sequence (P00519 whole entry, the tested form may be a part): as the sequence (P00519 whole entry, the tested form may be a part) above

| SMILES | IC50 [1] | EC50 [2] |
| --- | --- | --- |
| COc1ccc2[nH]nc(-c3nc4ccc(N5CCC(N6CCCCC6)CC5)cc4[nH]3)c2c1 | 230 nM | – |
| COc1ccccc1Oc1ccc2[nH]nc(-c3nc4cc(N5CCC(N6CCCCC6)CC5)ccc4[nH]3)c2c1 | 20 nM | – |
| COc1cc2[nH]nc(-c3nc4ccc(N5CCC(N6CCCCC6)CC5)cc4[nH]3)c2cc1OCc1ccccc1 | 3 nM | – |
| c1ccc(COc2ccc3[nH]nc(-c4nc5ccc(N6CCC(N7CCCCC7)CC6)cc5[nH]4)c3c2)cc1 | 60 nM | 970 nM |
| COc1ccc(Oc2ccc3[nH]nc(-c4nc5cc(N6CCC(N7CCCCC7)CC6)ccc5[nH]4)c3c2)cc1 | 220 nM | – |
| c1ccc(CN2CCC(Nc3ccc4[nH]nc(-c5nc6cc(N7CCC(N8CCCCC8)CC7)ccc6[nH]5)c4c3)CC2)cc1 | 7 nM | 70 nM |
| c1ccc(CNc2ccc3[nH]nc(-c4nc5ccc(N6CCC(N7CCCCC7)CC6)cc5[nH]4)c3c2)cc1 | 130 nM | 1800 nM |
| c1ccc(Oc2ccc3[nH]nc(-c4nc5ccc(N6CCC(N7CCCCC7)CC6)cc5[nH]4)c3c2)cc1 | 30 nM | – |
| c1ccc(COc2ccc3c(-c4nc5ccc(N6CCC(N7CCCCC7)CC6)cc5[nH]4)n[nH]c3c2)cc1 | 200 nM | – |
| c1csc(CNc2ccc3[nH]nc(-c4nc5cc(N6CCC(N7CCCCC7)CC6)ccc5[nH]4)c3c2)n1 | 10 nM | 10 nM |
| c1coc(CNc2ccc3[nH]nc(-c4nc5cc(N6CCC(N7CCCCC7)CC6)ccc5[nH]4)c3c2)c1 | 60 nM | 30 nM |
| c1ccc(COc2cc3[nH]nc(-c4nc5cc(N6CCC(N7CCCCC7)CC6)ccc5[nH]4)c3cc2OCc2ccccc2)cc1 | 900 nM | – |
| CC(C)(C)NC(=O)Nc1ccc2[nH]nc(-c3nc4ccc(N5CCC(N6CCCCC6)CC5)cc4[nH]3)c2c1 | 30 nM | 360 nM |
| COc1cccc(Oc2ccc3[nH]nc(-c4nc5cc(N6CCC(N7CCCCC7)CC6)ccc5[nH]4)c3c2)c1 | 60 nM | – |
| O=C(Nc1ccc2[nH]nc(-c3nc4ccc(N5CCC(N6CCCCC6)CC5)cc4[nH]3)c2c1)c1ccco1 | 150 nM | 560 nM |
| c1ccc2c(-c3nc4ccc(N5CCC(N6CCCCC6)CC5)cc4[nH]3)n[nH]c2c1 | 600 nM | – |
